Read-outs that look alike come from different tables or passages of the source.
Assays:
NCI-60 cancer cell lines = assay: NCI-60 cancer cell line drug screen (GI50, MGM); format: cell-based, human; conditions: Homo sapiens; for GI50: read-out: Antiproliferative Activities [GI50 (μM)]
Protocol: Cancer cells were incubated with the test compounds at five concentrations ranging from 100 μM to 10 nM for 48 h. […] The approximate average of GI50 values across the entire panel of NCI-60 cancer cell lines for each compound was recorded as the MGM value.

[1] = tested on: MYC protein expression in MCF-7 breast cancer cells; assay: Western blotting of MYC protein level in MCF-7 cells; format: cell-based, human; conditions: Homo sapiens, MCF7; western blotting, MCF-7 cells, 0.5, 1, 2, and 4 μM, 24 hours; read-out: MYC Inhibition
Method in brief: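 MCF-7 cells were exposed to compounds at 0.5, 1, 2 and 4 μM for 24 hours at 37° C. MYC was detected by immunoblot with ECL, using rabbit anti-MYC (1:1000) and anti-GAPDH (1:2000) as loading control.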

human topoisomerase I = biological target: T1, human topoisomerase I (Homo sapiens, UniProt P11387); conditions: relative topoisomerase I inhibition levels, previously determined, six levels (0 - 5, +++++ = 5); cited from earlier work
T1 sequence (P11387 1-765): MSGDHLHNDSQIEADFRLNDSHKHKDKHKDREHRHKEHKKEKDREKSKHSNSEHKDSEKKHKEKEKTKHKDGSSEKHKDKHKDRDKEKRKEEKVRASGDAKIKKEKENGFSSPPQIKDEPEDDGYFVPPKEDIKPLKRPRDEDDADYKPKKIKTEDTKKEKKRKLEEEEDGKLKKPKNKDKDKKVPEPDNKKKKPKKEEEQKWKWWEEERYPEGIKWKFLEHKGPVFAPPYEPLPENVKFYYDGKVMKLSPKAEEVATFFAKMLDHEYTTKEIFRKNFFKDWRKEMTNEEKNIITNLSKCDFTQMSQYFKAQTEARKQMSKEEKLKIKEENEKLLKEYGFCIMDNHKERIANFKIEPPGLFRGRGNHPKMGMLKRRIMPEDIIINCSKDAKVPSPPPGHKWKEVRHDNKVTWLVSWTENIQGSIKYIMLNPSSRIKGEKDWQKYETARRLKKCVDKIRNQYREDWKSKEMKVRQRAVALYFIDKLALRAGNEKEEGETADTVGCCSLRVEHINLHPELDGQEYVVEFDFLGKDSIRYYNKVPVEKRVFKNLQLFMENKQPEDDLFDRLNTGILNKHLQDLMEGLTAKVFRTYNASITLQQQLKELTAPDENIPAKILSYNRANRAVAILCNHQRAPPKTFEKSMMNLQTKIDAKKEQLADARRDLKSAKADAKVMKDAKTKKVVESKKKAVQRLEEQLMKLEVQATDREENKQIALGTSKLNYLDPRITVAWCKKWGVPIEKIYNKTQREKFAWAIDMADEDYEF

For `CNCCCn1c2c(c3ccc(Cl)cc3c1=O)C(=O)c1cc(OC)cnc1-2` [Compound 3], the GI50 (NCI-60 cancer cell lines; 786-0, Renal Cancer, 786-0) was 0.32 µM, the GI50 (NCI-60 cancer cell lines; A498, Renal Cancer, A498) was 0.53 µM and the GI50 (NCI-60 cancer cell lines; A549, Non-Small Cell Lung Cancer, A549/ATCC) was 0.45 µM. For the same molecule, the GI50 (NCI-60 cancer cell lines; ACHN, Renal Cancer, ACHN) was 0.22 µM, the GI50 (NCI-60 cancer cell lines; BT-549, Breast Cancer, BT-549) was 0.65 µM and the GI50 (NCI-60 cancer cell lines; CAKI-1, Renal Cancer, CAKI-1) was 0.06 µM. It also gave a GI50 (NCI-60 cancer cell lines; CCRF-CEM, Leukemia, CCRF-CEM) of 0.06 µM, a GI50 (NCI-60 cancer cell lines; COLO 205, Colon Cancer, COLO 205) of 0.5 µM and a GI50 (NCI-60 cancer cell lines; DU-145, Prostate Cancer, DU-145) of 0.33 µM. It also gave a GI50 (NCI-60 cancer cell lines; EKVX, Non-Small Cell Lung Cancer, EKVX) of 1.2 µM, a GI50 (NCI-60 cancer cell lines; HCC 2998, Colon Cancer, HCC-2998) of 1.41 µM and a GI50 (NCI-60 cancer cell lines; HCT-15, Colon Cancer, HCT-15) of 1.11 µM. The GI50 (NCI-60 cancer cell lines; HCT-116, Colon Cancer, HCT-116) was 0.55 µM, the GI50 (NCI-60 cancer cell lines; HL-60, Leukemia, HL-60(TB)) was 0.6 µM and the GI50 (NCI-60 cancer cell lines; HOP-62, Non-Small Cell Lung Cancer, HOP-62) was 0.22 µM. It also gave a GI50 (NCI-60 cancer cell lines; HOP-92, Non-Small Cell Lung Cancer, HOP-92) of 1.19 µM, a GI50 (NCI-60 cancer cell lines; HT-29, Colon Cancer, HT29) of 1.08 µM and a GI50 (NCI-60 cancer cell lines; Hs-578T, Breast Cancer, HS 578T) of 1.84 µM. It also gave a GI50 (NCI-60 cancer cell lines; IGROV-1, Ovarian Cancer, IGROV1) of 1.14 µM, a GI50 (NCI-60 cancer cell lines; K562, Leukemia, K-562) of 1.14 µM and a GI50 (NCI-60 cancer cell lines; KM12, Colon Cancer, KM12) of 1.1 µM. For the same molecule, the GI50 (NCI-60 cancer cell lines; LOX IMVI, Melanoma, LOX IMVI) was 0.16 µM, the GI50 (NCI-60 cancer cell lines; Leukemia, SR) was 0.14 µM and the GI50 (NCI-60 cancer cell lines; MCF7, Breast Cancer, MCF7) was 0.05 µM. It also gave a GI50 (NCI-60 cancer cell lines; MDA-MB-231, Breast Cancer, MDA-MB-231/ATCC) of 1.62 µM, a GI50 (NCI-60 cancer cell lines; MDA-MB-435, Melanoma, MDA-MB-435) of 1.07 µM and a GI50 (NCI-60 cancer cell lines; MDA-MB-468, Breast Cancer, MDA-MB-468) of 1.28 µM. It also gave a GI50 (NCI-60 cancer cell lines; MOLT-4, Leukemia, MOLT-4) of 0.04 µM, a GI50 (NCI-60 cancer cell lines; Malme-3M, Melanoma, MALME-3M) of 1.48 µM and a GI50 (NCI-60 cancer cell lines; Melanoma, M14) of 0.57 µM. The GI50 (NCI-60 cancer cell lines; NCI-H23, Non-Small Cell Lung Cancer, NCI-H23) was 0.92 µM, the GI50 (NCI-60 cancer cell lines; NCI-H226, Non-Small Cell Lung Cancer, NCI-H226) was 1.35 µM and the GI50 (NCI-60 cancer cell lines; NCI-H322M, Non-Small Cell Lung Cancer, NCI-H322M) was 1.28 µM. The GI50 (NCI-60 cancer cell lines; NCI-H460, Non-Small Cell Lung Cancer, NCI-H460) was 0.05 µM, the GI50 (NCI-60 cancer cell lines; NCI-H522, Non-Small Cell Lung Cancer, NCI-H522) was 0.37 µM and the GI50 (NCI-60 cancer cell lines; OVCAR-3, Ovarian Cancer, OVCAR-3) was 1.41 µM. The GI50 (NCI-60 cancer cell lines; OVCAR-4, Ovarian Cancer, OVCAR-4) was 1.27 µM, the GI50 (NCI-60 cancer cell lines; OVCAR-5, Ovarian Cancer, OVCAR-5) was 1.69 µM and the GI50 (NCI-60 cancer cell lines; OVCAR-8, Ovarian Cancer, OVCAR-8) was 1.18 µM. The GI50 (NCI-60 cancer cell lines; Ovarian Cancer, NCl/ADR-RES) was 0.54 µM, the GI50 (NCI-60 cancer cell lines; Prostate Cancer, PC-3) was 1.02 µM and the GI50 (NCI-60 cancer cell lines; RPMI-8226, Leukemia, RPMI-8226) was 1.47 µM. The GI50 (NCI-60 cancer cell lines; RXF 393, Renal Cancer, RXF 393) was 1.3 µM, the GI50 (NCI-60 cancer cell lines; Renal Cancer, U0-31) was 1.08 µM and the GI50 (NCI-60 cancer cell lines; SF-268, CNS Cancer, SF-268) was 0.4 µM. It also gave a GI50 (NCI-60 cancer cell lines; SF-295, CNS Cancer, SF-295) of 0.13 µM, a GI50 (NCI-60 cancer cell lines; SF-539, CNS Cancer, SF-539) of 0.73 µM and a GI50 (NCI-60 cancer cell lines; SK-MEL-2, Melanoma, SK-MEL-2) of 13.2 µM. For the same molecule, the GI50 (NCI-60 cancer cell lines; SK-MEL-5, Melanoma, SK-MEL-5) was 1.12 µM, the GI50 (NCI-60 cancer cell lines; SK-MEL-28, Melanoma, SK-MEL-28) was 1.62 µM and the GI50 (NCI-60 cancer cell lines; SK-OV-3, Ovarian Cancer, SK-OV-3) was 0.66 µM. It also gave a GI50 (NCI-60 cancer cell lines; SN12C, Renal Cancer, SN12C) of 1.18 µM, a GI50 (NCI-60 cancer cell lines; SNB-19, CNS Cancer, SNB-19) of 0.61 µM and a GI50 (NCI-60 cancer cell lines; SNB-75, CNS Cancer, SNB-75) of 0.26 µM. For the same molecule, the GI50 (NCI-60 cancer cell lines; SW-620, Colon Cancer, SW-620) was 0.08 µM, the GI50 (NCI-60 cancer cell lines; T47D, Breast Cancer, T-47D) was 1.12 µM and the GI50 (NCI-60 cancer cell lines; U-251, CNS Cancer, U251) was 0.3 µM. It also gave a GI50 (NCI-60 cancer cell lines; UACC-62, Melanoma, UACC-62) of 0.57 µM, a GI50 (NCI-60 cancer cell lines; UACC-257, Melanoma, UACC-257) of 2.24 µM and a mean GI50 across NCI-60 panel (MGM) (NCI-60 cancer cell lines; average of GI50 values across the entire panel of NCI-60 cancer cell lines) of 0.6 µM. The minimal effective concentration [1] was 0.5 to 1 µM and the “Top1 Inhibiton” value (human topoisomerase I) was “++ (medium inhibition, ++, MYC expression inhibited at 2.0 μM, or no clear dose-dependent MYC inhibition)”.
